Test results published in patent publication US12433860B2, “Treatment of multiple sclerosis comprising DHODH inhibitors” (Immunic AG, priority 2021, dated 2025).
Where “and” joins values, the source holds several entries; their conditions need not be identical. Equal values may be shown once. Where a name gives a salt, the structure may show the parent alone.

Columns and labels:
[1] = system: neurofilament light chain in serum; assay: EMPhASIS: change in serum neurofilament light chain; type: in vivo, human; settings: for Median change in neurofilament light chain in serum from baseline to week 24: placebo 6.5%
Protocol: Other secondary endpoints included: the difference in the cumulative number of combined unique active lesions up to week 24 between vidofludimus calcium 45 mg and vidofludimus calcium 30 mg; number or cumulative number of gadolinium-enhancing, T1, or T2 lesions up to 24 weeks; annualized relapse rate from baseline until week 24; proportion of relapse-free patients up to week 24; time-to-first relapse; change in EDSS score from baseline; proportion of patients with EDSS score progression; brain atrophy and other MRI endpoints; and safety and tolerability as assessed by the investigators. Annualized relapse rate was defined as the total number of confirmed relapses divided by the real exposure time in years assessed over the time during the double-blind treatment period. EDSS progression was defined as an increase compared to baseline of at least 1.0 point for patients with a baseline EDSS score of 1.0 to 4.0 or of at least 1.5 points for patients with a baseline EDSS score of 0. Vidofludimus calcium trough concentrations (weeks 6 and 24) were used to assess the correlation between pharmacokinetics and MRI-based assessments. The effects of vidofludimus calcium on serum neurofilament (baseline and week 24) were also analyzed.
Based on pre-clinical and clinical studies and the single and multiple-dose Phase 1 studies with IMU-838, daily doses of IMU-838 of up to 50 mg once daily are considered safe. […] A post-hoc analysis from EMPhASIS study (see Example 1 and 2) in the non-relapse active subgroup of rrMS patients was conducted. […] Change in mean EDSS from baseline to Week 24 in a non-relapse active subgroup of rrMS patients (patients without relapse between baseline and Week 24).

[2] = Pre-clinical, clinical and single and multiple-dose Phase 1 studies: safe daily dose; type: in vivo; settings: once daily
[3] = system: patients with RRMS and evidence of active disease; assay: EMPhASIS Cohort 2 interim analysis: MRI lesions up to Week 12; type: in vivo, human
Protocol: Given the relative equal performance of the two doses in Cohort 1 (see Example 1) and to allow for pharmacodynamic modeling of the dose-response relationship, a lower dose was investigated. The objective of the Cohort 2 sub-trial is to obtain exploratory data on the dose response of IMU-838 by evaluating a lower IMU-838 dose i.e. 10 mg/day to provide additional data for pharmacodynamic modelling. The 10 mg IMU-838 dose was selected since it is more than 50% lower than the lowest effective dose of Cohort 1 (30 mg IMU 838) and avoids undesired overlap in serum trough levels for pharmacodynamic modelling of the pooled Cohort 1 and 2 data. A small placebo arm is included to provide blinding of patients and to relate Cohort 2 treatment effects. Assessments and procedures mostly follow those described for the main treatment period in the Cohort 1 main trial. Trial objectives and endpoints: The objective of this sub-trial is to obtain more efficacy and safety data of IMU-838 in patients with RRMS and to allow pharmacodynamic modelling of the dose response. The endpoints analyzed in this interim analysis were between-treatment differences in the following MRI parameters: cumulative number of CUA MRI lesions up to Week 12; cumulative number of new Gadolinium enhancing (Gd+) lesions up to Week 12; proportion of patients without CUA MRI lesions until Week 12; and proportion of patients without new Gd+ lesions until Week 12. Overall trial design and plan: This is a double-blind, placebo-controlled, randomized, parallel-group sub-trial of P2 IMU-838 MS to assess the efficacy and safety of once-daily oral 10 mg/day IMU-838 compared to placebo in patients with RRMS and evidence of active disease. The sub-trial consists of a blinded main treatment period and an open-label, extended treatment period (FIG. 2). Patients were randomized 1:4 to placebo and 10 mg IMU-838 on Day 0.

[4] = system: experimental autoimmune encephalomyelitis; settings: rodents; cited from earlier work

## COc1cccc(-c2ccc(NC(=O)C3=C(C(=O)O)CCC3)c(F)c2)c1 [vidofludimus calcium, 1-cyclopentene-1-carboxylic acid, 2-(((3-fluoro-3′-methoxy(1,1′-biphenyl)-4-yl)amino)carbonyl)-, calcium salt (2:1)]
[1]; 30 mg once daily
  Median change in neurofilament light chain in serum from baseline to week 24: −17.0%
[1]; 45 mg dose, FIG. 3A
  decrease in serum neurofilament light chain (NfL), dose comparison: greater decrease
[1]; 45 mg once daily
  Median change in neurofilament light chain in serum from baseline to week 24: −20.5%
[2]
  daily dose considered safe: up to 50 mg
[3]; 10 mg
  suppression of CUA lesions at Week 12 compared with placebo: 32%
[3]; 10 mg (C2), mFAS, placebo 4.4
  Cumulative number of CUA MRI lesions up to Week 12, Mean: 3.0
[3]; 10 mg (C2), mFAS, placebo 41.4, listed as IMU-838
  Patients without CUA MRI lesions over 12 weeks: 46% and 45.7%
[3]; 10 mg (C2), mFAS, placebo 49.3, listed as IMU-838
  Patients without New Gd+ lesions over 12 weeks: 51% and 51.1%
[3]; totality of Cohort 1 data and Week 12 interim analysis of Cohort 2
  lowest effective dose in patients with rrMS: 30 mg
[4]
  activity in experimental autoimmune encephalomyelitis: dose-dependent activity
